Experimental data from US20230365577A1, “Photodynamic Therapy and Diagnosis” (RMW CHO Group Limited, priority 2020, published 2023).
Values joined by “and” are separate entries in the source; they are usually repeats but may differ in a detail not shown here. Identical values can stand only once. Like-named read-outs stand apart in the source and are kept apart here. Values belong to the molecule of their own block, whether it stands above or below them.

Assays:
[1] = Singlet oxygen (1O2) production rate; assay type: physicochemical
From the text: The production of singlet oxygen (^1O2), cellular phototoxicity and light-independent cytotoxicity (“dark toxicity”) of a number of phyllochlorin analogues were compared against chlorin e4 disodium and Talaporfin sodium (mono-L-aspartyl chlorin e6), the active ingredient of Laserphyrin™.

[2] = tested on: SKOV3 ovarian cancer cells; experiment: Phototoxicity in SKOV3 cells (652 nm laser, AlamarBlue viability); assay type: cell-based, Human; settings: for IC50: SKOV3, 652 nm laser, estimated from fitted curves
Description: (§1) Human ovarian cancer cell line SKOV3 (ATCC #HTB-77) was maintained in Dulbecco's Modified Eagle Medium/Nutrient Mixture F-12 (DMEM/F-12), supplemented with 10% v/v Fetal Bovine Serum, 100 U/mL penicillin and 100 µg/mL streptomycin. Monolayer cultures were grown in a humidified incubator at 37° C. with 5% CO2.
(§2) For in vitro experiments, photosensitizers (stock solution 5.5 mM in 100% DMSO) were diluted in cell culture media (Dulbecco's Modified Eagle Medium/Nutrient Mixture F-12) supplemented with 10% v/v Fetal Bovine Serum, 100 U/mL penicillin, 100 µg/mL streptomycin and 10% w/v Kollidon-12. Once cells had reached ˜80% confluence, spent media was replaced with media containing photosensitizer and cells were incubated for the desired period of time to allow photosensitizer uptake.
(§3) SKOV3 cells were seeded in 96-well black wall plates (Greiner #655090) at a cell density of 5000 cells in 100 μl culture medium per well. On reaching ˜60% confluence, so media was aspirated and replaced with fresh media containing the relevant phyllochlorin analogue from 0-100 μM in DMSO. Cells were incubated for a further 24 hours, allowing uptake of phyllochlorin analogues.
(§4) To test for phototoxicity, cells incubated with phyllochlorin analogues (0-10 μM in DMSO) had culture media replaced after 24 hours (as above) and were then exposed to a 652 nm laser (Invion) with laser density at 50 mW/cm^2 for 5 mins (total 15 J/cm^2). Following activation, cells were cultured for a further 24 hours. Media was then replaced with fresh media containing AlamarBlue, and % viable cells remaining assessed as above. Controls included cells treated with phyllochlorin analogues but not activated by laser light; cells without phyllochlorin analogue treatment but with laser light; and untreated controls. All measurements were made in quadruplicate.
(§5) For comparative purposes, phyllochlorin analogues were tested and compared against both chlorin e4 disodium and Talaporfin sodium, a clinically approved photosensitizer used in the photodynamic treatment of lung cancers. Phototoxicity IC90 values and dark toxicity IC10 values were calculated using a log[inhibitor]-vs normalized response dose curve with variable slope, using the formula Y=100/(1+(IC90/X)^HillSlope (phototoxicity IC90) or Y=100/(1+(IC10/X)^HillSlope (dark toxicity IC10).

[3] = tested on: SKOV3 ovarian cancer cells; experiment: Inherent cytotoxicity (dark toxicity) in SKOV3 cells (AlamarBlue viability); assay type: cell-based, Human; settings: for Concentration at which cells remained >80% viable (dark toxicity) / Concentration at which cells retained >80% viability (dark toxicity): SKOV3, 24 hours; for Concentration at which cells remained >80% viable (dark toxicity): absence of PVP; for Concentration at which cells retained >80% viability (dark toxicity): with addition of PVP
Description: as §1, §2
as §3, with “confluence,” for “confluence, so”
(§6) To test for inherent cytotoxicity (i.e. “dark toxicity”) of the phyllochlorin analogue the culture media was replaced after 24 hours with fresh media containing 10% (v/v) AlamarBlue Cell Viability Reagent (ThermoFisher) and cells incubated at 37° C. for 6 hours. Untreated cells were used as a control. Fluorescence (Ex 555 nm/Em 596 nm) was measured using a Cytation 3 Multimode Plate Reader (Biotek), and cytotoxicity assessed according to the % viable cells remaining. All measurements were made in quadruplicate.
as §5

[4] = Acute toxicity after intraperitoneal injection; assay type: in vivo, C57BL/6 mice; settings: 5 mg/kg intraperitoneal, 1% PVP in PBS + 20 mM HEPES, observed 30 mins
Description: To assess acute toxicity, phyllochlorin or chlorin e4 disodium (each prepared with 1% PVP in PBS+20 mM HEPES) were administered at a dose of 5 mg/kg to C57BL/6 mice by intraperitoneal injection.

[5] = tested on: OVCAR3; experiment: Cytotoxicity, pan-cancer panel; assay type: cell-based; settings: OVCAR3, ovarian adenocarcinoma
Description: as §6
(§7) The activity of phyllochlorin analogues against multiple cancer cell types was assessed as above, using compounds 3 and 6 as examples.

[6] = tested on: HEK293; experiment: Cytotoxicity, pan-cancer panel; assay type: cell-based; settings: HEK293, embryonic kidney
Description: as §6, §7

[7] = tested on: HH; experiment: Cytotoxicity, pan-cancer panel; assay type: cell-based; settings: T cell lymphoma
Description: as §6, §7

[8] = tested on: A549; experiment: Cytotoxicity, pan-cancer panel; assay type: cell-based; settings: A549, lung adenocarcinoma
Description: as §6, §7

[9] = tested on: DLD-1; experiment: Cytotoxicity, pan-cancer panel; assay type: cell-based; settings: DLD-1, colorectal adenocarcinoma
Description: as §6, §7

[10] = tested on: MDA-MB-468; experiment: Cytotoxicity, pan-cancer panel; assay type: cell-based; settings: MDA-MB-468, breast adenocarcinoma (triple negative)
Description: as §6, §7

[11] = tested on: LP9; experiment: Cytotoxicity, pan-cancer panel; assay type: cell-based; settings: LP9, immortalised mesothelial cells
Description: as §6, §7

[12] = tested on: CaOV3; experiment: Cytotoxicity, pan-cancer panel; assay type: cell-based; settings: CaOV3, ovarian adenocarcinoma
Description: as §6, §7

[13] = tested on: OVCAR3; experiment: Phototoxicity, pan-cancer panel; assay type: cell-based; settings: Homo sapiens, OVCAR-3, light or radiation study; OVCAR3, ovarian adenocarcinoma
Description: as §4, §7

[14] = tested on: HEK293; experiment: Phototoxicity, pan-cancer panel; assay type: cell-based; settings: Homo sapiens, light or radiation study; HEK293, embryonic kidney
Description: as §4, §7

[15] = tested on: HH; experiment: Phototoxicity, pan-cancer panel; assay type: cell-based; settings: Homo sapiens, light or radiation study, T cell lymphoma
Description: as §4, §7

[16] = tested on: A549; experiment: Phototoxicity, pan-cancer panel; assay type: cell-based; settings: Homo sapiens, light or radiation study; A549, lung adenocarcinoma
Description: as §4, §7

[17] = tested on: DLD-1; experiment: Phototoxicity, pan-cancer panel; assay type: cell-based; settings: Homo sapiens, light or radiation study; DLD-1, colorectal adenocarcinoma
Description: as §4, §7

[18] = tested on: MDA-MB-468; experiment: Phototoxicity, pan-cancer panel; assay type: cell-based; settings: Homo sapiens, light or radiation study; MDA-MB-468, breast adenocarcinoma (triple negative)
Description: as §4, §7

[19] = tested on: LP9; experiment: Phototoxicity, pan-cancer panel; assay type: cell-based; settings: light or radiation study; LP9, immortalised mesothelial cells
Description: as §4, §7

[20] = tested on: CaOV3; experiment: Phototoxicity, pan-cancer panel; assay type: cell-based; settings: Homo sapiens, Caov-3, light or radiation study; CaOV3, ovarian adenocarcinoma
Description: as §4, §7

[21] = Solubility and absorbance maxima (absorbance spectra in DMSO/PBS, with or without PVP); assay type: physicochemical
Description: Absorbance maxima (660±2 nm for phyllochlorin) were used as a surrogate measure of solubility. The relevant phyllochlorin analogue was diluted to 50 μM in PBS (phosphate buffered saline) solutions containing decreasing amounts of DMSO from 100% to 0%.
Where required, polyvinylpyrrolidone (K30) was added to a final concentration of 1% w/v. Absorbance was measured using a Cytation 3 Multimode Plate Reader (Biotek) in spectral scanning mode, with spectra captured between 500-800 nm in 2 nm increments. Equivalent blank solutions were also measured and subtracted accordingly. Each spectrum was normalized to have a minimum signal of 0, and a maximum signal in pure DMSO solution (the most soluble state) of 100%.
The solubility of phyllochlorin was assessed in solutions containing DMSO as an organic solvent. Phyllochlorin (50 μM final concentration) was resuspended in 100% DMSO to fully dissolve the phyllochlorin. With phyllochlorin concentrations maintained at 50 μM the % DMSO was decreased in a stepwise manner from 100% to 0%. All solutions were mixed by vortexing, then centrifuged for 2 mins to pellet any insoluble material. A 150 μl aliquot was transferred to individual wells of a 96-well clear microplate, and absorbance spectra collected between 500-800 nm in 2 nm increments. Equivalent solutions containing decreasing % DMSO were used to control for background.

[22] = Estimated pKa of the carboxylic acid; assay type: physicochemical
From the text: As PBS buffer (pH 7.4) is used in the experiments and the carboxylic acid in phyllochlorin (and the same carboxy group in other related chlorins) is estimated to have a pKa of less than 5, phyllochlorin in the PBS buffer will exist predominantly as the sodium and potassium salts with very little to no free acid.

[23] = SKOV3, 24 h uptake, 652 nm laser 50 mW/cm2 5 mins (15 J/cm2), viability 24 h later, read-out: Cellular Toxicity: Phototoxicity IC90
[24] = SKOV3, 24 h incubation, no light

Structure (SMILES): C=Cc1c(C)c2cc3nc(c(C)c4[nH]c(cc5nc(cc1[nH]2)C(C)=C5CC)c(C)c4C(=O)O)[C@@H](CCC(=O)O)[C@@H]3C [Chlorin e4 disodium, chlorin e4 disodium, reference compound]
- Singlet Oxygen Production (slope) 1O2 [1]: 998.2
- IC50 ([2]; absence of PVP): 4.53 µM
- IC50 ([2]; with addition of PVP): 1.35 µM
- IC90 [2, 23]: 21.3 µM
- Concentration at which cells remained >80% viable (dark toxicity) [3]: up to 80 μM
- Concentration at which cells retained >80% viability (dark toxicity) [3]: 100 µM
- Cellular Toxicity: Dark toxicity IC10 [3, 24]: 40.23 µM
- Side effects (clinical signs of acute toxicity) [4]: No side effects were noted

- Singlet Oxygen Production (slope) 1O2 [1]: 2054.0
Structure (SMILES): C=Cc1c(C)c2cc3nc(c(C)c4cc(C)c(cc5nc(cc1[nH]2)C(C)=C5CC)[nH]4)[C@@H](CCC(=O)NCCCS[C@@H]1O[C@H](CO)[C@@H](O)[C@H](O)[C@H]1O)[C@@H]3C [Compound 3, 3-((7S,8S)-18-ethyl-2,5,8,12,17-pentamethyl-13-vinyl-7H,8H-porphyrin-7-yl)-N-(3-(((2S,3R,4S,5S,6R)-3,4,5-trihydroxy-6-(hydroxymethyl)tetrahydro-2H-pyran-2-yl)thio)propyl)propanamide]
- Cytotoxicity IC10 [5]: 29.97 µM
- Cytotoxicity IC10 [6]: 8.11 µM
- Cytotoxicity IC10 [7]: 14.80 µM
- Cytotoxicity IC10 [8]: 4.22 µM
- Cytotoxicity IC10 [9]: 42.28 µM
- Cytotoxicity IC10 [10]: 6.00 µM
- Cytotoxicity IC10 [11]: 18.01 µM
- Cytotoxicity IC10 [12]: 5.43 µM
- IC90 ([2]; Homo sapiens, SK-OV-3, light or radiation study, SKOV3, ovarian clear cell (Table 2), read-out: Phototoxicity IC90): 0.11 µM
- IC90 ([2]; Homo sapiens, SK-OV-3, light or radiation study, SKOV3, 24 h uptake, 652 nm laser 50 mW/cm2 5 mins (15 J/cm2), viability 24 h later, read-out: Cellular Toxicity: Phototoxicity IC90): 0.08 µM
- IC90 ([2]; Homo sapiens, SK-OV-3, light or radiation study, SKOV3, read-out: Phototoxicity apparent IC90): < 0.1 µM
- Cellular Toxicity: Dark toxicity IC10 ([3]; human, 24 h): 20.66 µM
- Cytotoxicity IC10 ([3]; human, 24 h): 20.66 µM
- IC90 [13]: 0.17 µM
- IC90 [14]: 0.22 µM
- IC90 [15]: 0.11 µM
- IC90 [16]: 0.2 µM
- IC90 [17]: 0.36 µM
- IC90 [18]: 0.07 µM
- IC90 [19]: 0.04 µM
- IC90 [20]: 0.05 µM

Structure (SMILES): C=CC1=C(C)c2cc3nc(c(C)c4cc(C)c(cc5[nH]c(cc1n2)c(C)c5CC)[nH]4)[C@@H](CCC(=O)O)[C@@H]3C [Phyllochlorin free acid, phyllochlorin free acid]
- Solubility ([21]; 50 μM, 1% w/v PVP, absorbance as surrogate): remained soluble in aqueous solvent (without DMSO)
- Absorbance maxima ([21]; aqueous solvent, single broad peak): 688±2 nm
- Absorbance maxima ([21]; fully solubilized in organic solvent (75% DMSO and above)): 660±2 nm
- pKa of the carboxylic acid [22]: less than 5
- Singlet Oxygen Production (slope) 1O2 [1]: 1335.5
- IC50 ([2]; absence of PVP): 0.0631 µM and 0.06 µM
- IC50 ([2]; with addition of PVP): 0.0539 µM
- IC90 [2, 23]: 0.29 µM
- Times more potent as a phototoxic agent than chlorin e4 disodium salt ([2]; ovarian cancer cells, head to head, without PVP): ~75 times
- Concentration at which cells remained >80% viable (dark toxicity) [3]: 10 µM
- Concentration at which cells retained >80% viability (dark toxicity) [3]: up to 25 μM
- Cellular Toxicity: Dark toxicity IC10 [3, 24]: 13.81 µM
- Side effects (clinical signs of acute toxicity) [4]: No side effects were noted
